The values below come from US11154548B2, “Monosubstituted or polysubstituted amphiphilic hypocrellin derivative, and preparation method and application thereof” (Technical Institute of Physics and Chemistry of the Chinese …, priority 2015, dated 2021).

Entries after “also recorded” stand apart in the source; their conditions may differ.

Assay type in all cases: cell-based
Series [1] deals with Hela cells. Kind of series: Cell phototoxicity experiment, 635 nm laser, MTT assay. The note with it: for Hela cells killed: 160 nM, exposed to red light (635 nm, 20 mW/cm^2, 1000 S), FIG. 10b. How it is done:
(§1) Cultured Hela cells were digested and percussed with 0.25% trypsin, made into a single cell suspension, adjusted to a cell count of about 2×10^4/mL, inoculated into a 96-well culture plate with 200 uL/well, and cultured in an incubator with a 5% CO2 environment at 37° C. After cells were adherent, the supernatant culture solution was discarded, different concentrations of photosensitizers (hematoporphyrin derivative HpD, HB, and hypocrellin derivative HB-1) were added strictly in dark according to the experiment design, and further incubated in an incubator with a 5% CO2 environment at 37° C. for another 1 h. Then the 96-well culture plate was perpendicularly irradiated with uniform semiconductor laser beam at a wavelength of 635 nm with the power density adjusted to 20 mW/cm^2 for 1000 S. At the same time, a blank group was arranged for each 96-well culture plate, and 6 wells were arranged for each condition. After irradiation, the culture plate was further incubated in an incubator with a 5% CO2 environment at 37° C. for another 24 h, and then the cell survival rate was detected. The survival rate of cells was detected by MTT assay. 20 uL of MTT (prepared with PBS, concentration: 5 mg/mL) was added to each well, and further incubated in an incubator with a 5% CO2 environment at 37° C. for another 4 h. Then the incubation was terminated. The supernatant was carefully pipetted from the wells and discarded, and then 150 uL of dimethyl sulfoxide (DMSO) was added to each well. The violet crystal was fully dissolved by vibration with a microvibrator for 10 min. The optical density value (OD value) of each well was detected by an ELIASA at 570 nm wavelength to calculate the cell survival rate according to the following formula: cell survival rate=OD value of the experimental group/OD value of the blank group×100%.

The test system of series [2] is Hela cells. Kind of series: Phototoxicity experiment, 671 nm laser, MTT assay. The note with it: 200 nM, 50 mW/cm^2, 20 min, FIG. 16b. The method, then: Phototoxicity experiment: Hela cells were incubated together with different concentrations of the compound I-1, the HB and the Ce6 respectively, further incubated in an incubator with a 5% CO2 environment at 37° C. for another 1 hour. After laser irradiation with a power density of 50 mW/cm^2 at a wavelength of 671 nm for 20 min, the Hela cells were further cultured and incubated in an incubator with a 5% CO2 environment at 37° C. for another 24 h. The survival rate of cells in each group was detected by MTT assay.

In series [3] the test system is Hela cells. Kind of series: Dark toxicity experiment of polysubstituted derivatives, MTT assay. To be noted: in dark; for cytotoxicity (dark toxicity): Hela cells, FIG. 16a / FIG. 18a. How it is done:
Dark toxicity experiment: Hela cells at a certain concentration were inoculated into a 96-well plate, and cultured for 12-24 h. […] […] The survival rate of cells in each group was detected by MTT assay.
Dark toxicity experiment: Hela cells at a certain concentration were inoculated into a 96-well plate, and cultured for 12-24 h. […] […] The survival rate of cells in each group was detected by MTT assay. […] After laser irradiation with a power density of 20 mW/cm^2 at a wavelength of 808 nm for 20 min, the Hela cells were further cultured and incubated in an incubator with a 5% CO2 environment at 37° C. for another 24 h. The survival rate of cells in each group was detected by MTT assay.

Series [4] concerns Hela cells. Description: Dark cytotoxicity experiment, MTT assay. The note with it: in dark. The method, then:
as §1, with “and further incubated in an incubator with a 5% CO2 environment at 37° C. for another 1 h. Then the 96-well culture plate was perpendicularly irradiated with uniform semiconductor laser beam at a wavelength of 635 nm with the power density adjusted to 20 mW/cm^2 for 1000 S. At the same time, a blank group was arranged for each 96-well culture plate, and 6 wells were arranged for each condition. After irradiation, the culture plate was further incubated in an incubator with a 5% CO2 environment at 37° C. for another 24 h, and then the cell survival rate was detected.” left out

For series [5], the system named is Hela cells. Description: Phototoxicity experiment, 808 nm laser, MTT assay. To be noted: 300 nM, 20 mW/cm^2, 20 min, FIG. 18b.

For the compound hypocrellin B [HB], the Hela cells killed entry with Hela cells [1] was “about 20%”. Besides, in the series with Hela cells [1] (Hela cells, compared with HB and HpD, FIG. 10-14), the “phototoxicity / photodynamic effect, in words” value is recorded as “much poorer ability to photodynamically kill tumor cells”.
For the compound `CCCCNc1c(O)c2c3c(c(OC)c4c5c6c(c(O)c(OC)c7c6c(c1C=C(C)C7C(C)=O)c42)C(=O)C=C5OC)SCCN=3` (stereo not drawn) [I-1], the Hela cells killed result in the series with Hela cells [2] was “more than 90%”. Also, the “death of Hela cells after incubation with the photosensitizer” value in the series with Hela cells [3] (10 uM, half an hour) is “significant death of the Hela cells are not seen”. In addition, in the series with Hela cells [3], the “cytotoxicity (dark toxicity)” value is “very low cytotoxicity; also recorded: low cytotoxicity”.
As for `COC1=CC(=O)c2c(O)c(OC)c3c4c2c1c1c(OC)c2c(c5c6c(c(c4c15)C=C(C)C3C(C)=O)NCCN6)=NC(C(=O)O)CS2` (stereo not drawn) [II-2], the “cytotoxicity (dark toxicity)” value in the series on Hela cells [3] was “very low cytotoxicity”.
Take hematoporphyrin derivative [HpD]: the Hela cells killed result in the series on Hela cells [1] is “about 20%”.
Regarding `COc1c(O)c2c(=O)cc(OC)c3c4c(OC)cc(=O)c5c(O)c(NCCOCCO)c6c(c(c1C(/C(C)=N/CCOCCO)C(C)=C6)c23)c54` (stereo not drawn) [HB-1], the Hela cells killed result with Hela cells [1] is “more than 90%”. The “death of Hela cells after incubation with the photosensitizer” value in the series on Hela cells [4] (10 uM, half an hour) is recorded as “significant death of the Hela cells are not seen”. Also, the “cytotoxicity (dark toxicity)” value with Hela cells [4] (Hela cells, FIG. 10a / FIG. 11a) is “low cytotoxicity”.
Turning to `C=Cc1c(C)c2cc3nc(c(CC(=O)O)c4[nH]c(cc5nc(cc1[nH]2)C(C)=C5CC)c(C)c4C(=O)O)[C@@H](CCC(=O)O)[C@@H]3C` [Ce6, dihydroporphin Ce6, reference compound], the Hela cells killed entry in the series on Hela cells [5] is listed as “about 20%”; with Hela cells [2] it was “about 30%”.
